Measurements taken from US20090163436A1, “METHODS FOR DELIVERY OF NUCLEIC ACIDS” (Nucleonics, Inc., priority 2002, published 2009).
Like-named read-outs stand apart in the source and are kept apart here.

Tests used:
[1] = Example 4: oral delivery of luciferase plasmid microemulsions
Experimental: The objective is to develop microemulsion (ME) formulations designed for oral delivery of DNA. Microemulsions for oral delivery are prepared using a mixture that contains DNA or other nucleic acids (2.0 mg/mL in, e.g., 30 mM citrate, 150 mM NaCl pH 6.8 buffer) and benzalkonium chloride (0.1%). The mixture is further mixed in equal volumes to a mixture that contains seven parts of Labrasol™ (Gattefosse, Saint-Priest Cedex, France), one part of Lauroglycol (polypropylene esters such as Lauroglycol FCC for oral administration from Gattefosse, France) and two parts of ethanol. Other formulations contain bupivacaine at 0.25%, octyl spermine at 2.0 mg/mL, or cholesteryl spermine at 2.0 mg/mL, instead of benzalkonium chloride and lauroglycol in the above formulation. […] The DNA tested is an expression plasmid for luciferase (Promega Corp.). […] The formulation (100 uL) containing DNA is fed to mice (5 in one formulation group) by intubating the stomach. Five days following administration, several organs including kidney, liver, lung, intestinal segments (ileum, duodenum, small intestine and large intestine), brain, heart, and spleen are harvested and snap frozen. The tissues are homogenized in luciferase buffer (Promega Corp., Madison, Wis.) using a polytron. Luciferase activity is determined using a luminometer (Berthold) and in the assay buffer (Promega Corp., Madison, Wis.).

[2] = Example 4: phase location of DNA in cationic amphiphile emulsions; type: physicochemical; conditions: formulation containing the named cationic amphiphile
[3] = Example 3: tissue distribution of labeled DNA after IV administration; conditions: for total amount of CPMs in all of the organs combined, rank order: 5 days following IV, lung, heart, kidney, spleen, liver
Experimental: (§1) DNA is complexed with spermines as described in the previous two examples at the optimal charge ratio of 0.8 with either the monolactosyl, trilactosyl, or mannosyl (mono and bis) spermine to achieve a final DNA concentration of 1.0 mg/mL in citrate buffer at 5 mM and 150 mM NaCl.
(§2) The mice, 5 per group, are injected intravenously through the tail vein (100 uL). Mice are sacrificed at various times as indicated for serum analysis of plasmid DNA to determine blood clearance. To determine the amount of plasmid in blood, one mL of serum is placed in liquid scintillation counters with fluor to quantify the CPMs associated with each sample. In order to determine tissue distribution, various organs are harvested on day 5 (peak of expression from previous studies) and snap frozen. Whole organs from the animals are harvested livers from 3 animals in the group of 5 are ground in mild alkali (100 mM KOH) and neutralized with acid (HCl) prior to scintillation counting. Livers from the remaining two animals are embedded in paraffin and sectioned as described in Example 2 and stained for betagalactosidase activity, as described.
(§3) In the second part of the study, distribution of DNA amongst some of the major organs is evaluated 5 days following IV administration. A simple tissue grind and scintillation counting is carried out. The organs chosen (lung, heart, kidney, spleen, and liver) for analysis represent the major capillary beds.

[4] = test system: liver cells (hepatocytes, Kupfer cells); conditions: IV; for liver cell type transfected: betagal staining of liver slices
Experimental: The mixture is injected intravenously (100 uL) of 5 mice for each formulation variant. Formulations variants included different charge ratios and various lactosyl spermine to cholesteryl spermine ratios. At 5 days postinjection, when in vivo plasmid expression peaks, the mice are sacrificed, and their livers are removed and snap frozen for histological analysis. Several slices of the liver tissue both near and farther from the major blood vessels and the bile ducts are embedded into paraffin and sectioned using a microtome. The tissue slices are stained using X-gal (an enzymatic substrate for betagalactosidase). The liver tissue slices are stained using labeled lactosylated BSA, as a cross stain to identify hepatocytes (asialoglycoprotein receptor). The slides are viewed under an UV fluoroscent microscope to detect the label fluorescence, and the betgal stain is observed under light microscopy. Control mice are administered “naked” DNA free of added complexing agents and DNA complexed with either lactosyl spermine or cholesteryl spermine, but not both.

[5] = test system: cells derived from the spleen; conditions: IV administration, separate study
Experimental: The complexes are prepared as described above except that 5 mM citrate and 150 mM NaCl are used as buffer. To determine the transfection efficiency, the spleen is removed from mice on day 5. Cells are recovered by crushing the spleen on a slide and observing EGFP fluorescence by fluorescent microscopy. The cell type is identified by cross-staining staining the preparation with labeled MAC1 antibody (macrophage identification) or labeled mannosylated BSA (identification of mannose receptor containing cells) (Current Protocols in Immunology).
In the study evaluating the distribution and blood clearance of DNA following an IV administration, labeled DNA is separately complexed with modified spermines (only monocomplexes of any one spermine is used in this study). Mannose (mono and bis) and lactose (mono and tri) spermines are used separately in these complexes. Unmodified spermine and spermidine complexes with DNA serve as controls.

[6] = Example 3: blood clearance of 14C-labeled plasmid DNA after IV administration
Experimental: Bacteria containing the beta-galactosidase expression plasmid are grown in minimal M9 media (Miller, CSHS laboratory Press) in glucose as the sole carbon source overnight. The cells are washed in minimal media thrice through centrifugation and resuspension in M9 media without the carbon source, and resuspended in M9 with uniformally 14C-labeled ribose (NEN, MA) and deoxynucleosides (NEN, MA) for 3 hours. The cells are harvested, and the plasmid is isolated using Qiagen miniprep columns (Qiagen, Inc., CA). The labeled plasmid is mixed with unlabeled plasmid to achieve a specific activity of 3 million CPM per 100 ug plasmid.
as §1
The mice, 5 per group, are injected intravenously through the tail vein (100 uL). Mice are sacrificed at various times as indicated for serum analysis of plasmid DNA to determine blood clearance. To determine the amount of plasmid in blood, one mL of serum is placed in liquid scintillation counters with fluor to quantify the CPMs associated with each sample. […]

[7] = test system: peritoneal cells (macrophages, dendritic cells)
Experimental: Peritoneal fluid was isolated from mice. Plasmid DNA designed to express the green fluorescent protein (GFP) in mammalian cells was complexed with a mixture of the two spermines, mannosyl-mannosyl-spermine and cholesteryl spermine, at different ratios. The complexes were applied to peritoneal cells in culture. The fluorescence intensity of the cells were recorded. The complexes that were prepared for the ex vivo study were injected into the peritoneal cavity of mice. Four and five days following the injection, the cells were collected from the peritoneal cavity and spun down on slides and their ability to fluoresce was determined. The fluorescence intensities were recorded visually.
Labeled antibodies to defined cell surface markers were used to identify the cell type.

[8] = mouse, in vivo, iv
Experimental: as §1, §2, §3

[9] = In vivo transfection with local anesthetic complexed DNA versus naked DNA; conditions: IL12 DNA complexed with 0.25% bupivacaine
Text: As compared to cationic lipids, simple structures derived from water-soluble amphiphiles have a higher probability of forming transfecting structures that are uniform and homogenous, which is expected to result in increased efficiency, predictability, and potency. We selected cationic amphiphiles that are membrane active, such as the local anesthetics, e.g., bupivacaine (see U.S. Pat. No. 6,383,512, “Vesicular complexes and methods of making and using the same,” which describes compositions comprising lamellar vesicles that comprise a local anesthetic, e.g., bupivacaine, and a nucleic acid molecule). In particular, this reference describes compositions and methods for delivery of nucleic acid molecules that are antisense, ribozyme, or triplex forming nucleic acid molecules, as well as nucleic acid molecules that encode proteins (e.g., non-immunogenic therapeutically effective proteins, and immunogenic proteins designed to elicit a desired immune response in a host). Experiments were carried out to determine whether such vesicular complexes could be used to deliver dsRNA expression constructs capable of eliciting RNAi. […] Additionally, these are currently used in humans, and their toxicity/dose profiles are well characterized. In contrast, the associated toxicity of lipids that transfect efficiently in vitro may preclude their use in vivo. […]

IL-12 p40 = test: Example 5: serum IL-12 p40 ELISA after intramuscular IL-12 plasmid in Balb/C mice; conditions: mouse, in vivo
Experimental: Expression of the murine IL-12 transgenes was achieved through the use of vectors containing the HCMV IE promoter and SV40 polyadenation signal. ELISA of serum IL-12 p40 levels affords a facile system to analyze expression levels and the effectiveness of the administered DNA. p40 is one of the two polypeptide chains comprising IL-12.
In all of the RNAi studies described here using IL12 DNA (IL12, dsRNA producing vector and vector encoding T7 RNA polymerase), IL12 DNA was administered as a complex with bupivacaine, a local anesthetic, since higher in vivo transfection efficiencies (˜3×) are achieved with this complex over those mediated by naked DNA. […]
In another set of experiments, murine IL-12 p40 expression in sera was monitored in mice following intramuscular injection of a 100 ug dose of murine IL-12 expression plasmids or in naïve mouse controls that were not injected. […]
Murine IL-12 p40 serum expression was monitored following intramuscular injection of 100 ug IL-12 expression plasmids in mice injected at days 0 and 150 or in mice injected only at day 150. […]

## benzalkonium chloride
[1]; mouse, in vivo, po
  systemic absorption of DNA: Maximal systemic absorption
[2]
  phase of the oil in water emulsion that holds the DNA: in the oil phase

## N^4-(5-(trilactosyllysyllysyl) amidopentyl spermine triacetate [trilactosyl spermine]
[3]
  total amount of CPMs in all of the organs combined, rank order: trilactosyl>monolactosyl≅bismannosyl≅monomannosyl>>>controls

## lactosyl spermine
[4]
  liver cell type transfected: primarily transfect hepatocytes
[4]; liver sections, day 5
  DNA internalization, cell type: exclusively into hepatocytes
[4]; liver sections, no cholesteryl spermine in complex
  betagalactosidase expression: poor
[3]; IV, DNA monocomplex with modified spermine
  retention of DNA: 30%

## CC(C)CCC[C@@H](C)[C@H]1CC[C@H]2[C@@H]3CC=C4C[C@@H](OC(=O)NCCCCCN(CCCN)CCCCNCCCN)CC[C@]4(C)[C@H]3CC[C@]12C.Cl [cholesteryl spermine, N^4-(5-N-(3β-O-carbamoyl-5-cholestene)-1-pentyl)-spermine Hydrochloride]
[1]; oral microemulsion containing the named cationic amphiphile
  systemic absorption of DNA: Maximal systemic absorption
[2]
  phase of the oil in water emulsion that holds the DNA: in the oil phase

## CC(=O)O.CC(=O)O.CC(=O)O.CC(=O)O.NCCCN(CCCCCNC(=O)CCS[C@H]1O[C@H](CO)[C@@H](O)[C@H](O)[C@@H]1O)CCCCN(CCCN)CCCCCNC(=O)CCS[C@H]1O[C@H](CO)[C@@H](O)[C@H](O)[C@@H]1O [bismannosyl spermine, N^4,N^8-bis (5-N-(α-3′-propionamido thiomannoside)pentyl)-spermine tetraacetate]
[5]
  cells taking up the complexes: taken up exclusively by cells of the macrophage and dendritic cell lineages
[3]
  total amount of CPMs in all of the organs combined, rank order: trilactosyl>monolactosyl≅bismannosyl≅monomannosyl>>>controls
[6]; DNA monocomplex
  blood clearance slower than trilactosyl spermine complexes: 50-100 times
[6]; DNA monocomplex with the named spermine, charge ratio 0.8
  blood clearance of DNA: rapid clearance

## octyl spermine
[1]; mouse, in vivo, po
  systemic absorption of DNA: Maximal systemic absorption
[2]
  phase of the oil in water emulsion that holds the DNA: in the oil phase

## mannosyl spermine
[4]
  liver cell type transfected: transfect Kupfer cells
[7]; GFP plasmid
  expression from the internalized plasmid: observed only when cholesteryl spermine was included
[7]; all of the tested ratios
  internalization of labeled DNA particles: internalized
[8]
  retention of DNA: 85%

## CCCCN1CCCCC1C(=O)Nc1c(C)cccc1C (centres unmarked) [bupivacaine, reference compound]
[1]; mouse, in vivo, po
  systemic absorption of DNA: Maximal systemic absorption
[2]
  phase of the oil in water emulsion that holds the DNA: in the oil phase
[9]
  in vivo transfection efficiency over naked DNA: ~3 ×

B1: recombinant murine IL-12: recombinant murine IL-12 protein, 50 ug at day 0 (protein, UniProt P43431 23-215; P43432 23-335, looked up)
Interleukin-12 subunit alpha: RVIPVSGPARCLSQSRNLLKTTDDMVKTAREKLKHYSCTAEDIDHEDITRDQTSTLKTCLPLELHKNESCLATRETSSTTRGSCLPPQKTSLMMTLCLGSIYEDLKMYQTEFQAINAALQNHNHQQIILDKGMLVAIDELMQSLNHNGETLRQKPPVGEADPYRVKMKLCILLHAFSTRVVTINRVMGYLSSA
Interleukin-12 subunit beta: MWELEKDVYVVEVDWTPDAPGETVNLTCDTPEEDDITWTSDQRHGVIGSGKTLTITVKEFLDAGQYTCHKGGETLSHSHLLLHKKENGIWSTEILKNFKNKTFLKCEAPNYSGRFTCSWLVQRNMDLKFNIKSSSSSPDSRAVTCGMASLSAEKVTLDQRDYEKYSVSCQEDVTCPTAEETLPIELALEARQQNKYENYSTSFFIRDIIKPDPPKNLQMKPLKNSQVEVSWEYPDSWSTPHSYFSLKFFVRIQRKKEKMKETEEGCNQKGAFLVEKTSTEVQCKGGNVCVQAQDRYYNSSCSKWACVPCRVRS
IL-12 p40
  effect of pre-treatment on IL-12 expression: does not prevent subsequent expression
